This note sets out measurements from patent US7109193B2, “Tricyclic diazepines tocolytic oxytocin receptor antagonists” (Wyeth, priority 2001, dated 2006).

The inhibition is the drop in the measured response relative to a control, in per cent.

For the test, the target named is T1, human oxytocin receptor (Homo sapiens, UniProt P30559).
T1 construct: host or cells: CHO cells (pcDNA3.1 vector)
T1 sequence (P30559 1-389): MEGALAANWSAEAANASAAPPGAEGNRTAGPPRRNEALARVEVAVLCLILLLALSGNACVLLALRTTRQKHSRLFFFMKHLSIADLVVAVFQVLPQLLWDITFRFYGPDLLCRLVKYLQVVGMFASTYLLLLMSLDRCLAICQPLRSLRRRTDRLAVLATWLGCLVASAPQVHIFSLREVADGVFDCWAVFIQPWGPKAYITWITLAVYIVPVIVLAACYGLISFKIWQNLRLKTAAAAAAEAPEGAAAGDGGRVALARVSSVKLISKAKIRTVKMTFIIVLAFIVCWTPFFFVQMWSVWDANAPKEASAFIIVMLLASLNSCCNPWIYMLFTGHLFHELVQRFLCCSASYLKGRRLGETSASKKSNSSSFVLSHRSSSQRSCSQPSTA
Nature of the test: Oxytocin binding in Chinese Hamster Ovary cell membranes expressing human oxytocin receptors. Particulars: 100 nM, CHO cell membranes, [3H]oxytocin, values without parentheses, read-out: OT % inhibition @ 100% nM.
Consider `COc1cc(C(=O)N2Cc3ccc(C(=O)N(C)C4CCN(C)C4)n3Cc3ccccc32)ccc1-c1ccccc1C` (stereo not drawn) [Example 189, 10-[(2-Methoxy-2′-methyl[1,1′-biphenyl]-4-yl)carbonyl]-N-methyl-N-(1-methyl-3-pyrrolidinyl)-10,11-dihydro-5H-pyrrolo[2,1-c][1,4]benzodiazepine-3-carboxamide], for which the inhibition at 0.1 µM turned out to be 99%.

Take `COc1cccc(-c2ccc(C(=O)N3Cc4ccc(C(=O)N(C)C5CCN(C)C5)n4Cc4ccccc43)cc2C)c1` (stereo not drawn) [Example 186, 10-[(3′-Methoxy-2-methyl[1,1′-biphenyl]-4-yl)carbonyl]-N-methyl-N-(1-methyl-3-pyrrolidinyl)-10,11-dihydro-5H-pyrrolo[2,1-c][1,4]benzodiazepine-3-carboxamide]: the inhibition at 0.1 µM was 97%.

`COc1ccccc1-c1ccc(C(=O)N2Cc3ccc(C(=O)N(C)C4CCN(C)C4)n3Cc3ccccc32)cc1C` (stereo not drawn) [Example 185, 10-[(2′-Methoxy-2-methyl[1,1′-biphenyl]-4-yl)carbonyl]-N-methyl-N-(1-methyl-3-pyrrolidinyl)-10,11-dihydro-5H-pyrrolo[2,1-c][1,4]benzodiazepine-3-carboxamide]: the inhibition at 0.1 µM was determined as 95%.

On to `Cc1cc(C(=O)N2Cc3ccc(C(=O)N4CCN(C(C)C)CC4)n3Cc3ccccc32)ccc1-c1ccccc1C(F)(F)F` [Example 240, (4-Isopropyl-1-piperazinyl)(10-{[2-methyl-2′-(trifluoromethyl)[1,1′-biphenyl]-4-yl]carbonyl}-10,11-dihydro-5H-pyrrolo[2,1-c][1,4]benzodiazepin-3-yl)methanone], for which the inhibition at 0.1 µM was 62%.

As for `COc1ccccc1-c1ccc(C(=O)N2Cc3ccc(C(=O)N(C)C4CCN(C)CC4)n3Cc3ccccc32)cc1` [Example 177, 10-[(2′-Methoxy[1,1′-biphenyl]-4-yl)carbonyl]-N-methyl-N-(1-methyl-4-piperidinyl)-10,11-dihydro-5H-pyrrolo[2,1-c][1,4]benzodiazepine-3-carboxamide], the inhibition at 0.1 µM is 98%.

Consider `C=CCN1CCN(C(=O)c2ccc3n2Cc2ccccc2N(C(=O)c2ccc(-c4cccc5ccccc45)c(OC)c2)C3)CC1` [Example 231, (4-Allyl-1-piperazinyl){10-[3-methoxy-4-(1-naphthyl)benzoyl]-10,11-dihydro-5H -pyrrolo[2,1-c][1,4]benzodiazepin-3-yl}methanone], for which the inhibition at 0.1 µM was 63%.

Take `Cc1ccccc1-c1ccc(C(=O)N2Cc3ccc(C(=O)N4CCN(C(C)C)CC4)n3Cc3ccccc32)cc1C` [Example 233, {10-[(2,2′-Dimethyl[1,1′-biphenyl]-4-yl)carbonyl]-10,11-dihydro-5H-pyrrolo[2,1-c][1,4]benzodiazepin-3-yl}(4-isopropyl-1-piperazinyl)methanone]: the inhibition at 0.1 µM is 86%.

Turning to `COc1cccc(-c2ccc(C(=O)N3Cc4ccc(C(=O)N5CCN(C(C)C)CC5)n4Cc4ccccc43)cc2OC)c1` [Example 242, {10-[(2,3′-Dimethoxy[1,1′-biphenyl]-4-yl)carbonyl]-10,11-dihydro-5H-pyrrolo[2,1-c][1,4]benzodiazepin-3-yl}(4-isopropyl-1-piperazinyl)methanone], the inhibition at 0.1 µM worked out at 69%.

For the compound `COc1cc(-c2ccccc2C(F)(F)F)c(Cl)cc1C(=O)N1Cc2ccc(C(=O)O)n2Cc2ccccc21` [Example 15, 10-{[6-Chloro-3-methoxy-2′-trifluoromethyl-[1,1′-biphenyl]-4-yl]carbonyl}-10,11-dihydro-5H-pyrrolo[2,1-c][1,4]benzodiazepine-3-carboxylic acid], the inhibition at 0.1 µM is -4%.

Regarding `COc1cccc(-c2cc(OC)c(C(=O)N3Cc4ccc(C(=O)N(C)C5CCN(C)CC5)n4Cc4ccccc43)cc2Cl)c1` [Example 181, 10-[(6-Chloro-3,3′-dimethoxy[1,1′-biphenyl]-4-yl)carbonyl]-N-methyl-N-(1-methyl4-piperidinyl)-10,11-dihydro-5H-pyrrolo[2,1-c][1,4]benzodiazepine-3-carboxamide], the inhibition at 0.1 µM was found to be 100%.

Turning to `COc1cc(C(=O)N2Cc3ccc(C(=O)N4CCN(C(C)C)CC4)n3Cc3ccccc32)ccc1-c1cccc2ccccc12` [Example 236, (4-Isopropyl-1-piperazinyl){10-[3-methoxy-4-(1-naphthyl)benzoyl]-10,11-dihydro-5H -pyrrolo[2,1-c][1,4]benzodiazepin-3-yl}methanone], the inhibition at 0.1 µM came out at 46%.

For the compound `COc1cccc(-c2cc(OC)c(C(=O)N3Cc4ccc(C(=O)NCCN5CCCCC5)n4Cc4ccccc43)cc2Cl)c1` [Example 156, 10-[(6-Chloro-3,3′-dimethoxy[1,1′-biphenyl]-4-yl)carbonyl]-N-[2-(1-piperidinyl)ethyl]-10,11-dihydro-5H-pyrrolo[2,1-c][1,4]benzodiazepine-3-carboxamide], the inhibition at 0.1 µM was 30%.

With `Cc1cc(C(=O)N2Cc3ccc(C(=O)N4CCN(CCN5CCOCC5)CC4)n3Cc3ccccc32)ccc1-c1ccccc1C(F)(F)F` [Example 216, (10-{[2-Methyl-2′-(trifluoromethyl)[1,1′-biphenyl]-4-yl]carbonyl}-10,11-dihydro-5H -pyrrolo[2,1-c][1,4]benzodiazepin-3-yl){4-[2-(4-morpholinyl)ethyl]-1-piperazinyl}methanone], the inhibition at 0.1 µM is 82%.

Consider `C=CCN1CCN(C(=O)c2ccc3n2Cc2ccccc2N(C(=O)c2ccc(-c4ccccc4OC)c(C)c2)C3)CC1` [Example 222, (4-Allyl-1-piperazinyl){10-[(2′-methoxy-2-methyl[1,1′-biphenyl]-4-yl)carbonyl]-10,11-dihydro-5H-pyrrolo[2,1-c][1,4]benzodiazepin-3-yl}methanone], for which the inhibition at 0.1 µM turned out to be 84%.

For `COc1cc(C(=O)N2Cc3ccc(C(=O)N4CCN(CCN5CCOCC5)CC4)n3Cc3ccccc32)ccc1-c1cccc2ccccc12` [Example 213, {10-[3-Methoxy-4-(1-naphthyl)benzoyl]-10,11-dihydro-5H-pyrrolo[2,1-c][1,4]benzodiazepin-3-yl}{4-[2-(4-morpholinyl)ethyl]-1-piperazinyl}methanone], the inhibition at 0.1 µM came out at 70%.

Regarding `COc1cccc(-c2ccc(C(=O)N3Cc4ccc(C(=O)NCCC5CCCN5C)n4Cc4ccccc43)cc2OC)c1` (stereo not drawn) [Example 172, 10-[(2,3′-Dimethoxy[1,1′-biphenyl]-4-yl)carbonyl]-N-[2-(1-methyl-2-pyrrolidinyl)ethyl]-10,11-dihydro-5H-pyrrolo[2,1-c][1,4]benzodiazepine-3-carboxamide], the inhibition at 0.1 µM stood at 47%.

On to `COc1ccccc1-c1ccc(C(=O)N2Cc3ccc(C(=O)NCCN4CCCCC4)n3Cc3ccccc32)cc1OC` [Example 158, 10-[(2,2′-Dimethoxy[1,1′-biphenyl]-4-yl)carbonyl]-N-[2-(1-piperidinyl)ethyl]-10,11-dihydro-5H-pyrrolo[2,1-c][1,4]benzodiazepine-3-carboxamide], for which the inhibition at 0.1 µM came out at 50%.

As for `CN1CCCC1CCNC(=O)c1ccc2n1Cc1ccccc1N(C(=O)c1ccc(-c3cccc4ccccc34)cc1Cl)C2` (stereo not drawn) [Example 173, 10-[2-Chloro-4-(1-naphthyl)benzoyl]-N-[2-(1-methyl-2-pyrrolidinyl)ethyl]-10,11-dihydro-5H-pyrrolo[2,1-c][1,4]benzodiazepine-3-carboxamide], the inhibition at 0.1 µM stood at 21%.
